The source of these data is patent US11999677B2, “Benzylamino-oxoethyl benzamide analogs and methods of use” (The Board of Regents of the University of Oklahoma, priority 2018, dated 2024).

“Also recorded” adds a separate entry of the source. Like-named read-outs stand apart in the source and are kept apart here.

In data set [1] the test system is INS-1 cells. Nature of the data set: Cell viability assay: INS-1 β-cells co-treated with compound and tunicamycin (Tm), CellTiter-Glo intracellular ATP. It counts as cell-based, rat. Conditions: for Max Activity (%) / Emax: % rescue from Tm (0.15 μg/mL)-induced reduction of INS-1 cell viability, intracellular ATP, 72 h, Tm alone = 0%, DMSO control without Tm = 100%; for Emax: INS1, 72 h, read-out: Max Activity (%); for EC50: ten 2-fold serial titration points, triplicate, read-out: EC50 (μM), concentration that reaches half-maximal activity for INS-1 cell viability; for β-cell protective activity against Tm (in words): INS-1 cells in the presence of Tm. The procedure: INS-1 cells were cultured in RPMI 1640 medium (Corning) supplemented with 10% FBS (Atlanta Biologicals), 10 mM HEPES (Gibco-Life Technologies), 1 mM sodium pyruvate (Corning), 50 μM 2-mercaptoethanol (Sigma-Aldrich), and antibiotics (100 UI/mL penicillin and 100 µg/mL streptomycin; Corning) and maintained in a humidified 5% CO2 atmosphere at 37° C.
INS-1 cells were resuspended in RPMI 1640 medium containing 10% FBS and plated at 5×10^3 cells/(40 μL.well) into white clear bottom 384-well plates (Greiner) using an automated liquid handler (Biotek). After 24 h incubation at 37° C., library compounds were added to the wells at the indicated concentration using a pin-transfer robot (PerkinElmer). Tunicamycin (Tm) in RPMI 1640 medium containing 10% FBS was then added at a final concentration of 0.15 μg/mL. After 72 h, the medium was removed and 20 μL of CellTiter-Glo reagent which measures intracellular ATP levels as an indicator of viability (Promega) was added. Luminescence was measured 10 min later using an Envision plate reader (PerkinElmer).
We designed and synthesized novel benzylamino-oxoethyl benzamide analogs (5a-q, Table 1) and studied their effects on β-cell protection against ER stress. The analogs were tested for the viability of rat INS-1 β-cells in the presence of Tm, a potent ER stress inducer that inhibits N-linked glycosylation of proteins. The maximum activities and the concentrations that reach half-maximal activity (EC50) of the compounds were evaluated by the degree of increase in viability of INS-1 cells co-treated with the compounds in the presence of Tm compared with Tm treatment alone.

Data set [2] can be described thus: Solubility assay: turbidity in water, absorbance at 620 nm. It counts as physicochemical. The conditions noted are these: pure H2O with 1% DMSO, 37° C., 1-2 h shaking, absorbance 620 nm; compared with compound 1. How it is done:
Aqueous solubility was assessed as the degree of turbidity of compound in aqueous solutions, detected by absorbance at 620 nm. Higher turbidity indicated lower solubility. The experiments were performed in triplicate, with the results as the means±SD of triplicate wells.
Each compound was prepared at concentrations from 40 mM to 0.1 mM in DMSO in a serial-dilution manner. 2 μL of each of the above compound solutions was then dispensed directly to ˜198 μL of pure H2O in a 96-well white clear bottom microplate. Resulting solutions were shaken at 37° C. temperature 1-2 h on a rotary shaker at varying shaking rates to reach equilibrium solubility. The turbidity of the solution was measured using UV-visible spectrophotometry at 620 nm.
We investigated whether the compounds of the present disclosure have improved aqueous solubility. Using a thermodynamic turbidimetric assay we evaluated the aqueous solubility of several of the newly synthesized compounds.

For data set [3], the system named is pancreatic β-cells. The conditions noted are these: cited from earlier work.
Setting [4] is: Rattus norvegicus, INS1, INS-1 cells with Tm 0.15 μg/mL.

Turning to `Cc1c(Cl)cccc1C(=O)NCC(=O)NCc1ccc(C(F)(F)F)cc1` [Compound 5g, 3-Chloro-2-methyl-N-(2-oxo-2-((4-(trifluoromethyl)benzyl)amino)ethyl)benzamide], the “Max Activity (%)” value in data set [1] turned out to be 88%. The Emax in data set [1] (Rattus norvegicus) worked out at 88%. The EC50 in data set [1] (setting [4]) stood at 13 ± 1 µM. Moreover, the “aqueous solubility (turbidimetric, in words)” value (“aqueous solubility” for short) in data set [2] is “improved water solubility”.
`COc1cc(CNC(=O)CNC(=O)c2cccc(Cl)c2C)ccc1O` [Compound 5h, 3-Chloro-N-(2-((4-hydroxy-3-methoxybenzyl)amino)-2-oxoethyl)-2-methylbenzamide]: in data set [1], the “Max Activity (%)” value was 100%. The Emax in data set [1] (Rattus norvegicus) is 100%. In addition, the EC50 in data set [1] (setting [4]) came to 10 ± 2 µM. In data set [2], the “aqueous solubility” value is “improved water solubility”.
In the case of `O=C(CNC(=O)c1cccc(O)c1)NCc1ccc(C(F)(F)F)cc1` [Compound 5m, 3-Hydroxy-N-(2-oxo-2-((4-(trifluoromethyl)benzyl)amino)ethyl)benzamide], the “Max Activity (%)” value in data set [1] is on record as 100%. Besides, the Emax in data set [1] (Rattus norvegicus) was 100%. Besides, in data set [1] (setting [4]), the EC50 came out at 0.1 µM. In addition, in data set [2], the “aqueous solubility” value is “improved water solubility”.
Turning to `Cc1ccc(C)c(CNC(=O)CNC(=O)c2cccc(Cl)c2C)c1` [Compound 5a, 3-Chloro-N-(2-((2,5-dimethylbenzyl)amino)-2-oxoethyl)-2-methylbenzamide], in data set [1], the “Max Activity (%)” value was determined as 45%. For the same molecule, the EC50 was 18 ± 4 µM in data set [1] (INS-1 cells with Tm 0.15 μg/mL) and 18.6 µM in data set [1] (setting [4]). Also, the Emax in data set [1] (Rattus norvegicus) was found to be 45%.
With `COc1cc(CNC(=O)CNC(=O)c2cccc(O)c2)ccc1O` [Compound 5n, 3-Hydroxy-N-(2-((4-hydroxy-3-methoxybenzyl)amino)-2-oxoethyl)benzamide], the “β-cell protective activity against Tm (in words)” value (“β-cell protective activity” below) in data set [1] is reported as “significantly compromised activity”. In addition, in data set [1] (Rattus norvegicus), the Emax came out at 30%. Besides, the EC50 in data set [1] (setting [4]) came to 65 ± 8 µM.
`Cc1c(Cl)cccc1C(=O)NCC(=O)NCCc1ccc(O)cc1` [Compound 5f, 3-Chloro-N-(2-((4-hydroxyphenethyl)amino)-2-oxoethyl)-2-methylbenzamide]: in data set [1], the “Max Activity (%)” value was 41%. The Emax in data set [1] (Rattus norvegicus) lay in the range of 41 to 55%. Further, the EC50 in data set [1] (setting [4]) was determined as 34 ± 8 µM.
For `Cc1c(Cl)cccc1C(=O)NCC(=O)Nc1ccc2nc[nH]c2c1` [Compound 5c, N-(2-((1H-benzo[d]imidazol-6-yl)amino)-2-oxoethyl)-3-chloro-2-methylbenzamide], the Emax in data set [1] (Rattus norvegicus) amounted to 0%.
On to `Cc1ccc(C)c(NC(=O)c2nnn(-c3cccc(Cl)c3C)c2C)c1` [Compound 1, 1-(3-chloro-2-methylphenyl)-N-(2,5-dimethylphenyl)-5-methyl-1H-1,2,3-triazole-4-carboxamide, reference compound], for which the “aqueous solubility” value in data set [2] is given as “sub-optimal aqueous solubility; also recorded: poor water solubility”. Also, the “protective activity for pancreatic β-cells against ER stress (previously shown)” value in data set [3] is “protective activity”.
As to `COc1ccc(CNC(=O)CNC(=O)c2cccc(Cl)c2C)cc1` [Compound 5d, 3-Chloro-N-(2-((4-methoxybenzyl)amino)-2-oxoethyl)-2-methylbenzamide], in data set [1], the “Max Activity (%)” value is on record as 55%. For the same molecule, in data set [1] (Rattus norvegicus), the Emax lay within 41 to 55%. Further, the EC50 in data set [1] (setting [4]) turned out to be 32 ± 7 µM.
For `Cc1c(Cl)cccc1C(=O)NCC(=O)NCc1ccc(S(N)(=O)=O)cc1` [Compound 5e, 3-Chloro-2-methyl-N-(2-oxo-2-((4-sulfamoylbenzyl)amino)ethyl)benzamide] the same measures were 52%, 41 to 55% and 40 ± 12 µM.
`COc1cc(C(=O)NCC(=O)NCc2ccc(C(F)(F)F)cc2)ccc1O` [Compound 5o, 4-hydroxy-3-methoxy-N-(2-oxo-2-((4-(trifluoromethyl)benzyl)amino)ethyl)benzamide]: the “β-cell protective activity” value in data set [1] was “significantly compromised activity”. The Emax in data set [1] (Rattus norvegicus) worked out at 43%. Further, in data set [1] (setting [4]), the EC50 turned out to be 29 ± 6 µM.
With `O=C(CNC(=O)c1ccccc1)NCc1ccc(C(F)(F)F)cc1` [Compound 5j, N-(2-Oxo-2-((4-(trifluoromethyl)benzyl)amino)ethyl)benzamide], the “Max Activity (%)” value in data set [1] is listed as 35%. Moreover, in data set [1] (INS-1 cells with Tm 0.15 μg/mL), the EC50 was 43 ± 11 µM. Also, the Emax in data set [1] (Rattus norvegicus) was 35%.
`Cc1c(Cl)cccc1C(=O)NC(Cc1ccc(O)cc1)C(=O)NCc1ccc(C(F)(F)F)cc1` (stereo not drawn) [Compound 5q, 3-Chloro-N-(3-(4-hydroxyphenyl)-1-oxo-1-((4-(trifluoromethyl)benzyl)amino)propan-2-yl)-2-methylbenzamide]: in data set [1], the “Max Activity (%)” value is “Cytotoxic” and the “β-cell protective activity” value was “significantly less or not active”.
For `O=C(CNC(=O)c1ccc(F)cc1)NCc1ccc(C(F)(F)F)cc1` [Compound 5l, 4-fluoro-N-(2-oxo-2-((4-(trifluoromethyl)benzyl)amino)ethyl)benzamide], the “Max Activity (%)” value in data set [1] was determined as 12%. The Emax in data set [1] (Rattus norvegicus) is 12%. The EC50 in data set [1] (setting [4]) came to 41 ± 6 µM.
Turning to `Cc1c(Cl)cccc1C(=O)NCC(=O)NCc1ccccn1` [Compound 5b, 3-Chloro-2-methyl-N-(2-oxo-2-((pyridin-2-ylmethyl)amino)ethyl)benzamide], in data set [1], the “Max Activity (%)” value turned out to be 16%. The Emax in data set [1] (Rattus norvegicus) stood at 16%. In data set [1] (setting [4]), the EC50 is 38 ± 9 µM.
In the case of `Cc1c(Cl)cccc1C(=O)NC(C)C(=O)NCc1ccc(C(F)(F)F)cc1` (stereo not drawn) [Compound 5p, 3-Chloro-2-methyl-N-(1-oxo-1-((4-(trifluoromethyl)benzyl)amino)propan-2-yl)benzamide], the “β-cell protective activity” value in data set [1] is reported as “significantly less or not active”. The Emax in data set [1] (Rattus norvegicus) is 34%. Besides, the EC50 in data set [1] (setting [4]) stood at 63 ± 4 µM.
As for `Cc1c(Cl)cccc1C(=O)NCC(=O)NCc1cccc(C(F)(F)F)c1` [Compound 5i, 3-Chloro-2-methyl-N-(2-oxo-2-((3-(trifluoromethyl)benzyl)amino)ethyl)benzamide], the “Max Activity (%)” value in data set [1] is on record as 46%. Besides, in data set [1] (Rattus norvegicus), the Emax turned out to be 46%. Further, the EC50 in data set [1] (setting [4]) is 32 ± 7 µM.
For `CCc1ccc(C(=O)NCC(=O)NCc2ccc(C(F)(F)F)cc2)cc1` [Compound 5k, 4-Ethyl-N-(2-oxo-2-((4-(trifluoromethyl)benzyl)amino)ethyl)benzamide], the “Max Activity (%)” value in data set [1] worked out at 42%. Besides, the EC50 in data set [1] (INS-1 cells with Tm 0.15 μg/mL) was found to be 45 ± 8 µM. Also, the Emax in data set [1] (Rattus norvegicus) was 42%.
